From the PolyMetriX glass transition set
± gives the standard deviation of the reports.

| SMILES | glass transition temperature [°C] |
| --- | --- |
| *CCN(*)C(=O)c1cc(F)cc(F)c1F (repeat unit) | 110.00 |
| *=Nc1ccc(Cc2ccc(NC(=*)CCCC)cc2)cc1 (repeat unit) | 106.00 |
| *CC(*)c1ccc(C[Si](C)(C)C)cc1 (repeat unit) | 82.00 |
| *CCCCCCN1C(=O)c2ccc(Oc3ccc4c(c3)C(=O)N(*)C4=O)cc2C1=O (repeat unit) | 164.00 |
| */C=C/* (repeat unit) | -4.00 |
| */C(Cl)=C(/*)c1ccccc1 (repeat unit) | 215.00 |
| *CC(*)C1CCCC(C)C1 (repeat unit) | 141.00 |
| *CCOCCOC(=O)c1cccc(C(=O)O*)c1 (repeat unit) | 16.00 |
| *C(=O)c1ccc2c(c1)C(=O)N(c1ccc(Cl)c(N3C(=O)c4ccc(*)cc4C3=O)c1)C2=O (repeat unit) | 305.00 |
| *CC(*)(C)C(=O)OCCCCCCc1ccc(/N=N/c2ccc(OC(F)(F)F)cc2)cc1 (repeat unit) | 194.50 |
| *CC(*)C(=O)NC(C)C (repeat unit) [Poly(N-isopropyl acrylamide)] | 85.2 ± 56 |
| *OC(COCCCC)COC(*)=O (repeat unit) | -22.00 |
| *OP(=O)(Oc1ccc(Br)cc1)Oc1c(Br)cc(C(c2cc(Br)c(*)c(Br)c2)(C(F)(F)F)C(F)(F)F)cc1Br (repeat unit) | 152.00 |
| *CCCCCCN1C(=O)C(=O)N(*)C1=O (repeat unit) | 55.00 |
| *Cc1ccccc1[Si](*)(C)c1ccccc1 (repeat unit) | 93.80 |
| *CC(*)(C)C(=O)Oc1ccc(/C=C/c2ccccc2)cc1 (repeat unit) | 143.00 |
| *C(=O)OCCN(CCOC(=O)c1ccc2c(c1)C(=O)N(c1cccc(N3C(=O)c4ccc(*)cc4C3=O)c1)C2=O)c1ccc(/N=N/c2ccc([N+](=O)[O-])cc2)cc1 (repeat unit) | 210.00 |
| *CC(*)c1cc(-c2ccc(C(=O)OC(C)CCCCCC)cc2)ccc1-c1ccc(C(=O)OC(C)CCCCCC)cc1 (repeat unit) | 102.00 |
| *CC(C)(CO*)COCC(F)(F)C(F)(F)C(F)(F)F (repeat unit) | -45.00 |
| *CCOCCOC(=O)CCCCCC(=O)O* (repeat unit) | -41.50 |
| *CC(*)(CC(=O)OCCCCCCCCC)C(=O)OCCCCCCCCC (repeat unit) | -13.00 |
| */C=C/C(C)(C(=O)OC)C(*)C (repeat unit) | 34.00 |
| *c1cccc(N2C(=O)c3c(c(-c4ccccc4)c(-c4ccc(-c5c(-c6ccccc6)c6c(c(-c7ccccc7)c5-c5ccccc5)C(=O)N(*)C6=O)cc4)c(-c4ccccc4)c3-c3ccccc3)C2=O)c1 (repeat unit) | 416.00 |
| *CCCCCCCCCCOc1ccc(CCc2ccc(O*)cc2C)cc1 (repeat unit) | -3.00 |
| *O[Si](C)(C)O[Si](C)(C)O[Si](C)(C)O[Si](C)(C)c1cccc([Si](*)(C)C)c1 (repeat unit) | -75.00 |
| *CCCCCCOC(=O)OCCCCCCCCOC(=O)OCCCCCCn1c(=O)c2cc3c(=O)n(*)c(=O)c3cc2c1=O (repeat unit) | 8.00 |

More lines, now with the values ahead:

| glass transition temperature [°C] | SMILES |
| --- | --- |
| 295.00 | *Oc1ccc(C(C)(C)c2ccc(OC(=O)c3ccc([Si](c4ccccc4)(c4ccccc4)c4ccc(C(*)=O)cc4)cc3)cc2)cc1 (repeat unit) |
| 215.00 | *c1ccc(Oc2ccc(N3C(=O)c4ccc(Oc5ccc(C(C)(C)c6ccc(Oc7ccc8c(c7)C(=O)N(*)C8=O)cc6)cc5)cc4C3=O)cc2)cc1 (repeat unit) |
| 218.50 | *Oc1ccc(Oc2ccc(NC(=O)c3ccc(Oc4ccc(Oc5ccc(C(=O)Nc6ccc(*)cc6)cc5)cc4C)cc3)cc2)cc1C (repeat unit) |
| 40.00 | *CCOC(=O)c1ccc(-c2ccc(C(=O)O*)cc2)cc1 (repeat unit) |
| 179.00 | *=Nc1cccc(/N=C(\c2ccccc2)c2ccc(C(=*)c3ccccc3)cc2)c1 (repeat unit) |
| 244.00 | *c1cccc(C(=O)Nc2ccc(Oc3ccc(Oc4ccc(NC(=O)c5cccc(N6C(=O)c7ccc(-c8ccc9c(c8)C(=O)N(*)C9=O)cc7C6=O)c5)cc4)cc3)cc2)c1 (repeat unit) |
| 155.00 | *Oc1ccc(C(=O)NCC(C)(C)CCCNC(=O)c2ccc(*)cc2)cc1 (repeat unit) |
| 148.00 | *Oc1ccc(Oc2ccc(C(=O)c3cccc(C(=O)c4ccc(*)cc4)c3)cc2)cc1 (repeat unit) |
| 198.00 | *CCCCCCN1C(=O)c2ccc(C(=O)Nc3ccc(S(=O)(=O)c4ccc(NC(=O)c5ccc6c(c5)C(=O)N(*)C6=O)cc4)cc3)cc2C1=O (repeat unit) |
| 289.50 | *c1ccc(Oc2c(C)cc(C(c3cc(C)c(Oc4ccc(N5C(=O)c6ccc(-c7ccc8c(c7)C(=O)N(*)C8=O)cc6C5=O)cc4)c(C)c3)c3cccc4ccccc34)cc2C)cc1 (repeat unit) |
| 237.00 | *c1ccc(-c2ccc(-c3ccc(-c4ccc(-c5ccc6c(c5)C(=O)N(c5cccc(N7C(=O)c8ccc(*)cc8C7=O)c5)C6=O)cc4)cc3)cc2)cc1 (repeat unit) |
| 220.00 | *Nc1ccc(Cc2ccc(NC(=O)c3cc(NC(=O)CCCN4C(=O)c5ccccc5C4=O)cc(C(*)=O)c3)cc2)cc1 (repeat unit) |
| 117.00 | *CCCCCCCN1C(=O)c2ccc(C(=O)Oc3ccc(-c4ccc(OC(=O)c5ccc6c(c5)C(=O)N(*)C6=O)cc4)cc3)cc2C1=O (repeat unit) |
| 167.00 | *Oc1ccc(-c2ccc(Oc3ccc(C(=O)c4ccc(*)cc4)cc3)cc2)cc1 (repeat unit) |
| 198.00 | *c1ccc(C(=O)c2cccc(C(=O)c3ccc(S(*)(=O)=O)cc3)c2)cc1 (repeat unit) |
| 246.00 | *c1ccc(C(C)(C)c2ccc(C(C)(C)c3ccc(N4C(=O)c5ccc(Oc6ccc7cc(Oc8ccc9c(c8)C(=O)N(*)C9=O)ccc7c6)cc5C4=O)cc3)cc2)cc1 (repeat unit) |
| 81.00 | *CCCCCCCCOC(=O)Nc1ccc(NC(=O)OCCCCCCCCOc2ccc(-c3ccc(O*)cc3)cc2)c(C)c1 (repeat unit) |
| 351.00 | *c1ccc(Cc2ccc(-n3c(=O)c4cc5c(=O)n(*)c(=O)c5cc4c3=O)cc2)cc1 (repeat unit) |
| 272.00 | *C(=O)c1ccc2c(c1)C(=O)N(c1ccc(Oc3c(C)cc(C(c4cc(C)c(Oc5ccc(N6C(=O)c7ccc(*)cc7C6=O)cc5)c(C)c4)c4cccc5ccccc45)cc3C)cc1)C2=O (repeat unit) |
| 288.00 | *C(=O)c1ccc2c(c1)C(=O)N(c1ccc(Oc3cc(C(C)(C)C)c(Oc4ccc(N5C(=O)c6ccc(*)cc6C5=O)cc4)cc3C(C)(C)C)cc1)C2=O (repeat unit) |
| 199.50 | *Nc1ccc(NC(=O)c2ccc(NC(=O)CCCCCCCCCCC(=O)Nc3ccc(C(*)=O)cc3)cc2)cc1C(=O)OCCCCCCCCCCCCCCCC (repeat unit) |
| -11.00 | *CCCCCCOC(=O)OCCCCCOC(=O)OCCCCCCOc1ccc(Oc2ccc(O*)cc2)cc1 (repeat unit) |
